Assay results as given in US9597407B2, “Targeted antimicrobial moieties” (C3 Jian, Inc., priority 2009, dated 2017).
Ends that are not written are not given here.

Columns and labels:
microorganisms [1] = assay: Morphology, biofilm and growth disruption by peptides (Table 5); format: cell-based; set-up: key: A: Peptide aggregates; B: Less hyphal formation; Clumps; Diffuse clumps and small polyps; F: Diffuse growth; H: Thin; I: Growth inhibition; Microcolony formation; Rippled; Small polyps; Thick; W: Halo formation on top, microlonies on bottom
Source text: In certain embodiments peptides that induce alterations in phenotype or other biological activities can also be used as antimicrobial effector moieties.

microorganisms [2] = assay: Peptide activities: binding, antimicrobial, growth or phenotype altering (Table 8)
Source text: In certain embodiments, peptides described herein can have multiple activities. Thus for example, a peptide can have both binding/targeting activity and antimicrobial activity. Such peptides can be used, e.g., in a chimeric construct, for any or all of these properties. Thus, for example, a peptide designated “B” in Table 8 can be used as a targeting peptide. If it is also designated G or M it can also be used for antimicrobial activity.

Substance	Organism, effect (morphology, biofilm and growth disruption) (microorganisms [1]; MRSA)	Organism, effect (morphology, biofilm and growth disruption) (microorganisms [1]; S. epidermidis)	Organism, effect (morphology, biofilm and growth disruption) (microorganisms [1]; S. pneumoniae)	Activities (microorganisms [2])	Organism, effect (microorganisms [1]; E. coli)	Organism, effect (microorganisms [1]; E. faecalis)	Organism, effect (microorganisms [1]; MRSA)	Organism, effect (microorganisms [1]; S. epidermidis)	also measured
PF-544 (FGEKQMRSWWKVHWFHP; Peptide with targeting and/or antimicrobial activity)	MRSA (D)	S. epidermidis (D)	S. pneumoniae (M)	G B	–	–	–	–	Organism, effect (morphology, biofilm and growth disruption) (microorganisms [1]; E. faecalis): E. faecalis (R)
PF-057 (TMIVISIPRFEEYMKARHKKWM; Peptide with targeting and/or antimicrobial activity)	–	–	–	G B	E. coli (M)	E. faecalis (A)	MRSA (M)	S. epidermidis (D)	Organism, effect (microorganisms [1]; C. albicans): C. albicans (A); Organism, effect (microorganisms [1]; C. jeikeium): C. jeikeium (A); Organism, effect (microorganisms [1]; C. jejuni): C. jejuni (D); Organism, effect (microorganisms [1]; M. luteus): M. luteus (C); Organism, effect (microorganisms [1]; S. pneumoniae): S. pneumoniae (R)
PF-471 (MVGKIRGVTPRNDLLNANITGQLNLNYRLI; Peptide with targeting and/or antimicrobial activity)	MRSA (D)	S. epidermidis (C)	S. pneumoniae (D)	G B	–	–	–	–	Organism, effect (morphology, biofilm and growth disruption) (microorganisms [1]; C. jejuni): C. jejuni (D); Organism, effect (morphology, biofilm and growth disruption) (microorganisms [1]; E. coli): E. coli (C); Organism, effect (morphology, biofilm and growth disruption) (microorganisms [1]; E. faecalis): E. faecalis (C); Organism, effect (morphology, biofilm and growth disruption) (microorganisms [1]; P. aeruginosa): P. aeruginosa (A)
AL C SVIKAIEL GIINVHL Q [PF-366]	–	–	–	G B	E. coli (C)	E. faecalis (C)	MRSA (D)	S. epidermidis (R)	Organism, effect (microorganisms [1]; C. jejuni): C. jejuni (D); Organism, effect (microorganisms [1]; P. aeruginosa): P. aeruginosa (A); Organism, effect (microorganisms [1]; S. pneumoniae): S. pneumoniae (C)
PF-355 (WIAIGLLLYFSLKNQ; Peptide with targeting and/or antimicrobial activity)	–	–	–	G B	E. coli (C)	E. faecalis (D)	MRSA (A)	S. epidermidis (C)	Organism, effect (microorganisms [1]; C. jejuni): C. jejuni (D); Organism, effect (microorganisms [1]; P. aeruginosa): P. aeruginosa (A); Organism, effect (microorganisms [1]; S. pneumoniae): S. pneumoniae (D)
PF-454 (MSVFVPVTNIFMFIMSPIFNVNLLHFKVYI; Peptide with targeting and/or antimicrobial activity)	MRSA (C)	S. epidermidis (C)	S. pneumoniae (R)	G B	–	–	–	–	Organism, effect (morphology, biofilm and growth disruption) (microorganisms [1]; E. coli): E. coli (R); Organism, effect (morphology, biofilm and growth disruption) (microorganisms [1]; E. faecalis): E. faecalis (C); Organism, effect (morphology, biofilm and growth disruption) (microorganisms [1]; P. aeruginosa): P. aeruginosa (H)
PF-548 (ARPIADLIHFNSTTVTASGDVYYGPG; Peptide with targeting and/or antimicrobial activity)	MRSA (M)	S. epidermidis (M)	S. pneumoniae (D)	G B	–	–	–	–	Organism, effect (morphology, biofilm and growth disruption) (microorganisms [1]; B. subtilis): B. subtilis (C); Organism, effect (morphology, biofilm and growth disruption) (microorganisms [1]; C. jeikeium): C. jeikeium (R); Organism, effect (morphology, biofilm and growth disruption) (microorganisms [1]; C. jejuni): C. jejuni (D); Organism, effect (morphology, biofilm and growth disruption) (microorganisms [1]; M. luteus): M. luteus (A)
PF-543 (NILFGIIGFVVAMTAAVIVTAISIAK; Peptide with targeting and/or antimicrobial activity)	MRSA (D)	S. epidermidis (D)	S. pneumoniae (D)	G B	–	–	–	–	Organism, effect (morphology, biofilm and growth disruption) (microorganisms [1]; E. coli): E. coli (C); Organism, effect (morphology, biofilm and growth disruption) (microorganisms [1]; M. luteus): M. luteus (C); Organism, effect (morphology, biofilm and growth disruption) (microorganisms [1]; S. mutans): S. mutans (S)
PF-386 (FTLTLITTIVAILNYKDKKK; Peptide with targeting and/or antimicrobial activity)	–	–	–	G B	E. coli (C)	E. faecalis (C)	MRSA (C)	S. epidermidis (C)	–
PF-458 (ISLIIFIMLFVVALFKCITNYKHQS; Peptide with targeting and/or antimicrobial activity)	MRSA (M)	–	S. pneumoniae (M)	G B	–	–	–	–	Organism, effect (morphology, biofilm and growth disruption) (microorganisms [1]; P. aeruginosa): P. aeruginosa (H)
PF-537 (LANDYYKKTKKSW; Peptide with targeting and/or antimicrobial activity)	–	–	S. pneumoniae (C)	G B	–	–	–	–	–
PF-440 (MFIISPDLFNIAVILYILFFIHDILLLILS; Peptide with targeting and/or antimicrobial activity)	MRSA (C)	S. epidermidis (C)	S. pneumoniae (R)	G B	–	–	–	–	Organism, effect (morphology, biofilm and growth disruption) (microorganisms [1]; E. coli): E. coli (R); Organism, effect (morphology, biofilm and growth disruption) (microorganisms [1]; E. faecalis): E. faecalis (C)
PF-354 (FTFSKCRASNGRGFGTLWL; Peptide with targeting and/or antimicrobial activity)	–	–	–	G B	–	–	MRSA (H)	–	–
PF-439 (RVLVLKKFHGIMDGNRNVAVFFVGQ; Peptide with targeting and/or antimicrobial activity)	MRSA (M)	S. epidermidis (C)	S. pneumoniae (R)	G B	–	–	–	–	Organism, effect (morphology, biofilm and growth disruption) (microorganisms [1]; E. coli): E. coli (R); Organism, effect (morphology, biofilm and growth disruption) (microorganisms [1]; E. faecalis): E. faecalis (C)
PF-376 (MTVFEALMLAIAFATLIVKISNKNDKK; Peptide with targeting and/or antimicrobial activity)	–	–	–	G B	E. coli (C)	E. faecalis (C)	MRSA (C)	S. epidermidis (C)	–
PF-042 (LLLSYFRYTGALLQSLF; Peptide with targeting and/or antimicrobial activity)	–	–	–	G B	–	–	MRSA (R)	S. epidermidis (D)	Organism, effect (microorganisms [1]; C. jeikeium): C. jeikeium (S); Organism, effect (microorganisms [1]; M. luteus): M. luteus (C)
PF-022 (MINELKNKNSGIMNNYVVTKESKL; Peptide with targeting and/or antimicrobial activity)	–	–	–	G B	–	–	MRSA (R)	S. epidermidis (D)	Organism, effect (microorganisms [1]; C. jeikeium): C. jeikeium (A); Organism, effect (microorganisms [1]; M. luteus): M. luteus (A)
PF-526 (VLLLFIFQPFQKQLL-NH2)	MRSA (C)	S. epidermidis (C)	S. pneumoniae (R)	G B	–	–	–	–	Organism, effect (morphology, biofilm and growth disruption) (microorganisms [1]; C. albicans): C. albicans (C); Organism, effect (morphology, biofilm and growth disruption) (microorganisms [1]; E. coli): E. coli (R)
PF-379 (VFVVLFIIYLASKLLTKLFPIKK; Peptide with targeting and/or antimicrobial activity)	–	–	–	G B	E. coli (C)	E. faecalis (C)	MRSA (C)	S. epidermidis (C)	–
PF-124 (MADGQIAAIAKLHGVPVATRNIRHFQSFGVELINPWSG; Peptide with targeting and/or antimicrobial activity)	–	–	–	G B	–	–	–	S. epidermidis (C)	Organism, effect (microorganisms [1]; C. jeikeium): C. jeikeium (R)
PF-374 (HLFFVKGMFILCQKNQINDE; Peptide with targeting and/or antimicrobial activity)	–	–	–	G B	E. coli (C)	E. faecalis (C)	MRSA (M)	S. epidermidis (C)	–
PF-450 (HRNLIILQRTIFI; Peptide with targeting and/or antimicrobial activity)	MRSA (C)	–	S. pneumoniae (C)	G B	–	–	–	–	Organism, effect (morphology, biofilm and growth disruption) (microorganisms [1]; E. faecalis): E. faecalis (C)
PF-068 (SHLINNFGLSVINPSTPICLNFSPVFNLLTVYGITCN; Peptide with targeting and/or antimicrobial activity)	–	–	–	G B	E. coli (A)	E. faecalis (A)	MRSA (M)	S. epidermidis (M)	Organism, effect (microorganisms [1]; B. subtilis): B. subtilis (A); Organism, effect (microorganisms [1]; C. jeikeium): C. jeikeium (R); Organism, effect (microorganisms [1]; C. jejuni): C. jejuni (D); Organism, effect (microorganisms [1]; M. luteus): M. luteus (D); Organism, effect (microorganisms [1]; S. pneumoniae): S. pneumoniae (D)
PF-443 (KLLYFFNYFENLQQVHLLVQL; Peptide with targeting and/or antimicrobial activity)	MRSA (C)	–	S. pneumoniae (C)	G B	–	–	–	–	Organism, effect (morphology, biofilm and growth disruption) (microorganisms [1]; E. coli): E. coli (R)
PF-539 (SIILTKKKRRKIPLSIDSQIYKYTFKQ; Peptide with targeting and/or antimicrobial activity)	MRSA (H)	–	S. pneumoniae (A)	G B	–	–	–	–	–
